Measured values reported in patent US20170333516A1, “PREVENTIVE OR THERAPEUTIC AGENT FOR AGE-RELATED MACULAR DEGENERATION” (JUNTENDO EDUCATIONAL FOUNDATION, priority 2014, published 2017).

System: angiogenesis from the choroid plexus
Test: Laser-induced angiogenesis from the choroid plexus (AMD model), administration into the vitreous body
Type: in vivo, mouse
Details: for suppressive effect on AMD onset (FIG. 2): figure legend FIG. 2, old mice, administration into vitreous body after laser irradiation
From the text: Laser light (power: 200 mW, exposure time: 0.10 seconds, wavelength: 532 nm) was irradiated in 4 to 5 spots onto male young (8 to 12 weeks) and old (44 to 48 weeks) BLT1^+/+ mice and BLT1^−/− mice, and after 7 days, the eyes were isolated and fixed using a phosphate buffered saline (PBS) containing 4% paraformaldehyde (PFA), the cornea, lens, and retina were removed, and then fixed again using 4% PFA/PBS. The ocular tissue containing the retinal pigment epithelia and choroid plexus were immersed in PBS containing methanol in order of 50%, 75%, 100%, 75%, 50%, and 25% to remove water, and then incubated at 4° C. for 1 hour in a blocking solution (1% bovine blood serum albumin, phosphate buffered saline containing 0.1% Triton X-100), and then stained overnight at 4° C. using isolectin B4 (IB4, […]) labeled with FITC. Incisions were made in the samples and the samples were molded on a slide glass, sealed with a mounting agent containing an antifading reagent, and then a cover glass was placed thereon to produce a flat mount. A three-dimensional IB4 positive blood vessels image was captured using a confocal microscope, and the volume of angiogenesis that occurred in each mouse was measured.
Immediately after laser light irradiation of C57BL/6 background old mice purchased (Japan SLC, wild mice, 40 weeks or older, male), DMSO (final: 0.1%, diluted with PBS), CP105696 (where in the formula (1), R^1=phenyl and R^2=1-carboxycyclopentyl group) which is a BLT1 antagonist, or zileuton, bestatin, or MK886 each of which is an inhibitor for LTB4 production-related enzyme was administered into a vitreous body of each mouse. Similar to Test Example 1, angiogenesis from the choroid plexus was evaluated 7 days after laser irradiation.

SMILES	suppressive effect on AMD onset (FIG. 2)	angiogenesis volume (C57BL/6 background old mice (40 weeks or older, male), administered into vitreous body immediately after laser irradiation, evaluated 7 days after laser irradiation)
CC(C)c1ccc2c(c1)c(SC(C)(C)C)c(CC(C)(C)C(=O)O)n2Cc1ccc(Cl)cc1 [MK886]	suppressive effect	–
O=C(O)C1(c2ccc3c(c2)OC[C@H](Cc2ccc(-c4ccccc4)cc2)[C@H]3O)CCCC1 [CP 105696, 1-[(3S,4R)-4-hydroxy-3-[(4-phenylphenyl)methyl]chroman-7-yl]cyclopentane-1-carboxylic acid]	suppressive effect	significantly reduced in a concentration-dependent manner
CC(C)C[C@H](NC(=O)[C@@H](O)[C@H](N)Cc1ccccc1)C(=O)O [bestatin, N-[(2S,3R)-3-amino-2-hydroxy-4-phenylbutyryl]-L-leucine]	suppressive effect	–
CC(c1cc2ccccc2s1)N(O)C(N)=O (centres unmarked) [zileuton, N-[1-(1-benzothien-2-yl)ethyl]-N-hydroxyurea]	suppressive effect	–
